US20240307547A1, “NOVEL COMPOUNDS WHICH BIND TO CEREBLON, AND METHODS OF USE THEREOF” (Captor Therapeutics S.A., priority 2020, published 2024)

Experiments:
[1] = target: CRBN-DDB1 protein complex (Homo sapiens, UniProt Q96SW2); experiment: Fluorescence polarization (FP) assay, displacement of Cy5-labelled thalidomide; conditions: read-out: CRBN binding Ki; further: 25 nM CRBN-DDB1
Procedure: The test solution was added to a 384-well assay plate.
The plate was spun-down (1 min, 1000 rpm, 22° C.) and then shaken using a VibroTurbulator for 10 min at room temperature (20-25° C.), with the frequency set to level 3. The assay plate with protein and the tracer was incubated for 60 min at room temperature (20-25° C.) prior to read-out with a plate reader.
The FP experiment was carried out with various concentrations of the test compounds in order to measure Ki values.

IKZF3 = IKZF3 degradation assay, H929 cell line (western blot densitometry); type: cell-based; conditions: H929 cells, after 24 h
Procedure: (§1) H929 cells were maintained in RPMI-1640 medium, supplemented with penicillin/streptomycin and 10% Fetal Bovine Serum (FBS) and 0.05 mM 2-Mercaptoethanol. Cells were seeded on 6- or 12-well plates, and the compounds to be tested were added at the desired concentration range. Final DMSO concentration was 0.25%. After 24 h incubation (37° C., 5% CO2), cells were harvested, washed and cell lysates were prepared using RIPA lysis buffer. The amount of protein was determined via BCA assay, and the appropriate quantity was then loaded on the precast gel for the protein separation. After primary and secondary Ab staining, the membranes were washed and signals developed. The densitometry analysis was implemented to obtain the numeric values used later in the protein level evaluation process.
Densitometry values are normalized to the loading control (β-ACTIN) and presented as % of DMSO control in Tables 4A and 4B, below, using the following labels: • ≤25% for 0-25% of IKZF3 protein reduction, • >25% for 26-74% of IKZF3 protein reduction, • ≥75% for 75-100% of IKZF3 protein reduction.

IKZF1 = IKZF1 degradation assay, H929 cell line (western blot densitometry); type: cell-based; conditions: H929 cells, after 24 h
Procedure: as §1, with “penicillin/streptomycin,” for “penicillin/streptomycin and”
Densitometry values are normalized to the loading control (β-ACTIN) and presented as % of DMSO control in Table 3, below, using the following labels: • ≤25% for 0-25% of IKZF1 protein reduction, • >25% for 26-74% of IKZF1 protein reduction, • ≥75% for 75-100% of IKZF1 protein reduction.

H929 (myeloma) = experiment: Viability, CTG (CellTiter-Glo) assay; type: cell-based; conditions: Homo sapiens, NCI-H929, H929, 72 hours, 100% = DMSO, read-out: Average of % viability of quadruplicate
Procedure: Three thousand cells in 50 μL of culture medium were plated in 384-well plate, and incubated with 50, 13, and 2 μM of each compound for 72 hours. ATP content in the remaining cells after the treatment was quantitated with the CellTiter-Glo Luminescent Viability Assay Kit (Promega). The activity of the compound at each concentration was shown as percentage viability; 100% viability was the ATP content in the cells incubated with DMSO, the carrier of the compounds.

SALL4 = SALL4 degradation assay, Kelly cell line (western blot densitometry); type: cell-based; conditions: Kelly cells, after 24 h
Procedure: as §1, with “Kelly” for “H929”, “(FBS).” for “(FBS) and 0.05 mM 2-Mercaptoethanol.”, “6-well” for “6- or 12-well”, “were” for “were harvested,”, “antibody” for “Ab”
Densitometry values are normalized to the loading control (β-ACTIN) and presented as % of DMSO control in Table 2, below, using the following labels: • ≤25% for 0-25% of SALL4 protein reduction, • >25% for 26-74% of SALL4 protein reduction, • ≥75% for 75-100% of SALL4 protein reduction.

Chain of CRBN-DDB1 protein complex (Q96SW2 whole entry): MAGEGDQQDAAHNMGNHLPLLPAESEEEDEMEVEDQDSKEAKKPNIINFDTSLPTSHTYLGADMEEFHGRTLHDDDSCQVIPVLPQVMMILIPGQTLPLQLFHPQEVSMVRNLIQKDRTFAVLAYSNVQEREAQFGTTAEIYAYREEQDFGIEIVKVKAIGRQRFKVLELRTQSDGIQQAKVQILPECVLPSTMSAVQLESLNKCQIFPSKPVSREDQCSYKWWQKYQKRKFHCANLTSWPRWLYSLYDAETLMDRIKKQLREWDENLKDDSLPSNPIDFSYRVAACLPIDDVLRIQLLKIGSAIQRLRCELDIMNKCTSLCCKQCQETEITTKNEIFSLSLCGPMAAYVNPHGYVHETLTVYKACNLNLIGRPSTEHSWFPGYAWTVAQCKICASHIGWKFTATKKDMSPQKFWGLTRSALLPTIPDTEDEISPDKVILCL
Chain of CRBN-DDB1 protein complex (Q16531 whole entry partner): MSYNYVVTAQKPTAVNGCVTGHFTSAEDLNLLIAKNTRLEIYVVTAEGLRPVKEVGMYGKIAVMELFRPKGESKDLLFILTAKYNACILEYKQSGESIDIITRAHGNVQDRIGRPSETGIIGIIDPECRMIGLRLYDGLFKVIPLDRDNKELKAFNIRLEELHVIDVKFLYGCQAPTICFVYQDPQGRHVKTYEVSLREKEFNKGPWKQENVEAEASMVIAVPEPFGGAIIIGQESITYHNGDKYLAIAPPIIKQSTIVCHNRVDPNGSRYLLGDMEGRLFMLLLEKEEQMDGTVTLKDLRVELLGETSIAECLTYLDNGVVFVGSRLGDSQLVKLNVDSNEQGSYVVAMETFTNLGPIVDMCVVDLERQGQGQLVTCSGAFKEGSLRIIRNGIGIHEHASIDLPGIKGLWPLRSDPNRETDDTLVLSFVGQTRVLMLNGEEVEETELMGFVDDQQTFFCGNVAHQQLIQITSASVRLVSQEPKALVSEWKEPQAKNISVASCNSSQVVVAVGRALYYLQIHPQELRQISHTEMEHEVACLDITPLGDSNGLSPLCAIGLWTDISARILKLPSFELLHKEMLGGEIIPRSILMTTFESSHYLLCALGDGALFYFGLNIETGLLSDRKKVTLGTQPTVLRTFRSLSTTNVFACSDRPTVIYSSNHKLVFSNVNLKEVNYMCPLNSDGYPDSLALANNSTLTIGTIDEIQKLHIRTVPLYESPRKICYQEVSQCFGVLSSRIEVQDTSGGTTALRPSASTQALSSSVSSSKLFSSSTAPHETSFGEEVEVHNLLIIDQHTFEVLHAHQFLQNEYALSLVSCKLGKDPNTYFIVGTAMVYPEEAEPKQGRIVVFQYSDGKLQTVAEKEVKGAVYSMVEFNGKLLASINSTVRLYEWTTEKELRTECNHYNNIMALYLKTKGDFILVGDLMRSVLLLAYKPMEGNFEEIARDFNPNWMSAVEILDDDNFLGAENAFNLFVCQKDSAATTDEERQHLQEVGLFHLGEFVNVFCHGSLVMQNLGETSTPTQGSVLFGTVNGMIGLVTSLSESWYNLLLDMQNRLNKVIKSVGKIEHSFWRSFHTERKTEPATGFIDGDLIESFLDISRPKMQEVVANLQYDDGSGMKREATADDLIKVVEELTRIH

## Cc1nc2cc(NS(=O)(=O)c3ccccc3OC(F)(F)F)ccc2cc1C1CCC(=O)NC1=O (stereo not drawn) [Compound 19, N-(3-(2,6-dioxopiperidin-3-yl)-2-methylquinolin-7-yl)-2-(trifluoromethoxy)benzenesulfonamide]
[1]
  Ki: < 1000 nM

## O=C1CCC(c2cnc3cccc([N+](=O)[O-])c3c2)C(=O)N1 (stereo not drawn) [Compound 12, 3-(5-nitroquinolin-3-yl)piperidine-2,6-dione]
[1]
  Ki: 1000 to 5000 nM

## Cc1nc2cccc(NS(=O)(=O)c3ccccc3OC(F)(F)F)c2cc1C1CCC(=O)NC1=O (stereo not drawn) [Compound 17, N-(3-(2,6-dioxopiperidin-3-yl)-2-methylquinolin-5-yl)-2-(trifluoromethoxy)benzenesulfonamide]
[1]
  Ki: < 1000 nM

## Cc1nc2ccc(N)cc2cc1C1CCC(=O)NC1=O (stereo not drawn) [Compound 11, 3-(6-amino-2-methylquinolin-3-yl)piperidine-2,6-dione]
[1]
  Ki: < 1000 nM

## Cc1nc2c(N)cccc2cc1C1CCC(=O)NC1=O (stereo not drawn) [Compound 10, 3-(8-amino-2-methylquinolin-3-yl)piperidine-2,6-dione]
[1]
  Ki: < 1000 nM

## Nc1cccc2ncc(C3CCC(=O)NC3=O)cc12 (stereo not drawn) [Compound 14, 3-(5-aminoquinolin-3-yl)piperidine-2,6-dione]
[1]
  Ki: < 1000 nM

## Cc1nc2c(NS(=O)(=O)c3ccccc3OC(F)(F)F)cccc2cc1C1CCC(=O)NC1=O (stereo not drawn) [Compound 20, N-(3-(2,6-dioxopiperidin-3-yl)-2-methylquinolin-8-yl)-2-(trifluoromethoxy)benzenesulfonamide]
[1]
  Ki: 1000 to 5000 nM

## Cc1nc2cccc(F)c2cc1C1CCC(=O)NC1=O (stereo not drawn) [Compound 3, 3-(5-fluoro-2-methylquinolin-3-yl)piperidine-2,6-dione]
[1]
  Ki: 1000 to 5000 nM

## Cc1nc2cccc(N)c2cc1C1CCC(=O)NC1=O (stereo not drawn) [Compound 1, 3-(5-amino-2-methylquinolin-3-yl)piperidine-2,6-dione]
IKZF3; at 1 μM
  % of IKZF3 (bottom band) protein reduction: >25% (>25% for 26-74% of IKZF3 protein reduction)
  % of IKZF3 (upper band) protein reduction: >25% (>25% for 26-74% of IKZF3 protein reduction)
IKZF3; at 10 μM
  % of IKZF3 (bottom band) protein reduction: ≥75% (≥75% for 75-100% of IKZF3 protein reduction)
  % of IKZF3 (upper band) protein reduction: ≥75% (≥75% for 75-100% of IKZF3 protein reduction)
IKZF3; at 20 μM
  % of IKZF3 (bottom band) protein reduction: ≥75% (≥75% for 75-100% of IKZF3 protein reduction)
  % of IKZF3 (upper band) protein reduction: ≥75% (≥75% for 75-100% of IKZF3 protein reduction)
[1]
  Ki: 1000 to 5000 nM
IKZF1; at 1 μM
  % of IKZF1 protein reduction: >25% (>25% for 26-74% of IKZF1 protein reduction)
IKZF1; at 10 μM
  % of IKZF1 protein reduction: ≥75% (≥75% for 75-100% of IKZF1 protein reduction)
IKZF1; at 20 μM
  % of IKZF1 protein reduction: ≥75% (≥75% for 75-100% of IKZF1 protein reduction)
H929 (myeloma); at 2 μM
  viability at 2 µM: 61.2%
H929 (myeloma); at 13 μM
  viability at 13 µM: 47.5%
H929 (myeloma); at 50 μM
  viability at 50 µM: 32.9%
SALL4; at 1 μM
  % of SALL4 protein reduction: ≤25% (≤25% for 0-25% of SALL4 protein reduction)
SALL4; at 10 μM
  % of SALL4 protein reduction: >25% (>25% for 26-74% of SALL4 protein reduction)
SALL4; at 20 μM
  % of SALL4 protein reduction: >25% (>25% for 26-74% of SALL4 protein reduction)

## Cc1nc2ccc(NS(=O)(=O)c3ccccc3OC(F)(F)F)cc2cc1C1CCC(=O)NC1=O (stereo not drawn) [Compound 18, N-(3-(2,6-dioxopiperidin-3-yl)-2-methylquinolin-6-yl)-2-(trifluoromethoxy)benzenesulfonamide]
[1]
  Ki: < 1000 nM

## Cc1nc2ccc([N+](=O)[O-])cc2cc1C1CCC(=O)NC1=O (stereo not drawn) [Compound 5, 3-(2-methyl-6-nitroquinolin-3-yl)piperidine-2,6-dione]
[1]
  Ki: 5000 to 10000 nM

## Cc1nc2c(cnn2C)cc1C1CCC(=O)NC1=O (stereo not drawn) [Compound 4, 3-(1,6-dimethyl-1H-pyrazolo[3,4-b]pyridin-5-yl)piperidine-2,6-dione]
[1]
  Ki: 1000 to 5000 nM

## Cc1nc2cc([N+](=O)[O-])ccc2cc1C1CCC(=O)NC1=O (stereo not drawn) [Compound 6, 3-(2-methyl-7-nitroquinolin-3-yl)piperidine-2,6-dione]
[1]
  Ki: 5000 to 10000 nM

## O=C1CCC(N2C(=O)c3ccccc3C2=O)C(=O)N1 (stereo not drawn) [Thalidomide, reference compound]
IKZF3; at 1 μM
  % of IKZF3 (bottom band) protein reduction: ≤25% (≤25% for 0-25% of IKZF3 protein reduction)
  % of IKZF3 (upper band) protein reduction: ≤25% (≤25% for 0-25% of IKZF3 protein reduction)
IKZF3; at 10 μM
  % of IKZF3 (bottom band) protein reduction: ≤25% (≤25% for 0-25% of IKZF3 protein reduction)
  % of IKZF3 (upper band) protein reduction: ≤25% (≤25% for 0-25% of IKZF3 protein reduction)
IKZF3; at 20 μM
  % of IKZF3 (bottom band) protein reduction: >25% (>25% for 26-74% of IKZF3 protein reduction)
  % of IKZF3 (upper band) protein reduction: >25% (>25% for 26-74% of IKZF3 protein reduction)
IKZF1; at 1 μM
  % of IKZF1 protein reduction: ≤25% (≤25% for 0-25% of IKZF1 protein reduction)
IKZF1; at 10 μM
  % of IKZF1 protein reduction: ≤25% (≤25% for 0-25% of IKZF1 protein reduction)
IKZF1; at 20 μM
  % of IKZF1 protein reduction: >25% (>25% for 26-74% of IKZF1 protein reduction)
SALL4; at 1 μM
  % of SALL4 protein reduction: >25% (>25% for 26-74% of SALL4 protein reduction)
SALL4; at 10 μM
  % of SALL4 protein reduction: >25% (>25% for 26-74% of SALL4 protein reduction)
SALL4; at 20 μM
  % of SALL4 protein reduction: ≥75% (≥75% for 75-100% of SALL4 protein reduction)

## Cc1ccc(NC(=O)NCc2ccc3cc(C4CCC(=O)NC4=O)c(C)nc3c2)cc1Cl (stereo not drawn) [Compound 15, 1-(3-chloro-4-methylphenyl)-3-{[3-(2,6-dioxopiperidin-3-yl)-2-methylquinolin-7-yl]methyl}urea]
[1]
  Ki: < 1000 nM

## Cc1nc2cc(CNC(=O)C(F)(F)c3ccc(Cl)cc3)ccc2cc1C1CCC(=O)NC1=O (stereo not drawn) [Compound 16, 2-(4-chlorophenyl)-N-{[3-(2,6-dioxopiperidin-3-yl)-2-methylquinolin-7-yl]methyl}-2,2-difluoroacetamide]
[1]
  Ki: < 1000 nM

## Cc1nc2c([N+](=O)[O-])cccc2cc1C1CCC(=O)NC1=O (stereo not drawn) [Compound 7, 3-(2-methyl-8-nitroquinolin-3-yl)piperidine-2,6-dione]
[1]
  Ki: 1000 to 5000 nM

## Cc1nc2ccccc2cc1C1CCC(=O)NC1=O (stereo not drawn) [Compound 13, 3-(2-methylquinolin-3-yl)piperidine-2,6-dione]
[1]
  Ki: 1000 to 5000 nM

## Cc1nc2cc(C(=O)N[C@@H](C)C3CCCCC3)ccc2cc1C1CCC(=O)NC1=O (stereo partly drawn) [Compound 9, N—((S)-1-cyclohexylethyl)-3-(2,6-dioxopiperidin-3-yl)-2-methylquinoline-7-carboxamide]
[1]
  Ki: 1000 to 5000 nM

## Cc1nc2cccc([N+](=O)[O-])c2cc1C1CCC(=O)NC1=O (stereo not drawn) [Compound 2, 3-(2-methyl-5-nitroquinolin-3-yl)piperidine-2,6-dione]
[1]
  Ki: 1000 to 5000 nM

## Cc1nc2cc(N)ccc2cc1C1CCC(=O)NC1=O (stereo not drawn) [Compound 8, 3-(7-amino-2-methylquinolin-3-yl)piperidine-2,6-dione]
[1]
  Ki: < 1000 nM

## Cc1nc2c(Cl)cccc2cc1C1CCC(=O)NC1=O (stereo not drawn) [Compound 21, 3-(8-chloro-2-methylquinolin-3-yl)piperidine-2,6-dione]
[1]
  Ki: 1000 to 5000 nM

## Cc1nc2cccc(N)c2c(=O)n1C1CCC(=O)NC1=O (stereo not drawn) [CC-122]
SALL4; at 1 μM
  % of SALL4 protein reduction: ≥75% (≥75% for 75-100% of SALL4 protein reduction)
SALL4; at 10 μM
  % of SALL4 protein reduction: ≥75% (≥75% for 75-100% of SALL4 protein reduction)
SALL4; at 20 μM
  % of SALL4 protein reduction: ≥75% (≥75% for 75-100% of SALL4 protein reduction)
